Each molecule was assayed against T1, HIV-1 integrase (wild-type IN) (Human immunodeficiency virus type 1 group M subtype B, UniProt P12497) (assay: HIV-1 integrase 3′-processing assay (32P-labeled 21-mer, gel)). Conditions: unit inferred; read-out: HIV-1 IN Inhibitory Activities 3′-processing.
Assay type: biochemical
Source text: (§1) The oligonucleotides 21 top, 5′-[…]-3′ (SEQ ID NO:1) and 21 bot, 5′-[…]-3′ (SEQ ID NO:2) were purchased from Norris Cancer Center Core Facility (University of Southern California) and purified by UV shadowing on polyacrylamide gel. To analyze the extent of 3′-processing and strand transfer using 5′-end labeled substrates, 21 top was 5′-end labeled using T4 polynucleotide kinase (Epicentre, Madison, Wis.) and γ [^32P]-ATP (Amersham Biosciences or ICN). The kinase was heat-inactivated and 21 bot was added in 1.5-molar excess. The mixture was heated at 95° C., allowed to cool slowly to room temperature, and run through a spin 25 mini-column (USA Scientific) to separate annealed double-stranded oligonucleotide from unincorporated material.
(§2) To determine the extent of 3′-processing and strand transfer, wild-type IN was preincubated at a final concentration of 200 nM with the inhibitor in reaction buffer (50 mM NaCl, 1 mM HEPES, pH 7.5, 50 μM EDTA, 50 μM dithiothreitol, 10% glycerol (w/v), 7.5 mM MnCl2, 0.1 mg/ml bovine serum albumin, 10 mM 2-mercaptoethanol, 10% dimethyl sulfoxide, and 25 mM MOPS, pH 7.2) at 30° C. for 30 min. Then, 20 nM of the 5′-end ^32P-labeled linear oligonucleotide substrate was added, and incubation was continued for an additional one hour. Reactions were quenched by the addition of an equal volume (16 μl) of loading dye (98% deionized formamide, 10 mM EDTA, 0.025% xylene cyanol and 0.025% bromophenol blue). An aliquot (5 μl) was electrophoresed on a denaturing 20% polyacrylamide gel (0.09 M tris-borate pH 8.3, 2 mM EDTA, 20% acrylamide, 8M urea).
(§3) Gels were dried, exposed in a PhosphorImager cassette, and analyzed using a Typhoon 8610 Variable Mode Imager (Amersham Biosciences) and quantitated using ImageQuant 5.2. Percent inhibition (% I) was calculated using the following equation: %I=100×[1−(D−C)/(N−C)]
(§4) where C, N, and D are the fractions of 21-mer substrate converted to 19-mer (3′-processing product) or strand transfer products for DNA alone, DNA plus IN, and IN plus drug, respectively. The IC50 values were determined by plotting the logarithm of drug concentration versus percent inhibition to obtain concentration that produced 50% inhibition. […]

Structure (SMILES) | IC50 [µM]
O=C(CSc1nc(CSc2ccc(Cl)cc2)cc(=O)[nH]1)Nc1ccc(Cl)cc1Cl [Example X272] | 34
COc1cc(/C=N/NC2=NC(=O)C(CC(=O)Nc3ccc(Cl)c(Cl)c3)S2)ccc1O (centres unmarked) [Example X278] | 89
COc1ccc(N(CC(=O)N/N=C/c2c(O)ccc3ccccc23)S(C)(=O)=O)cc1Cl [Example X279] | 95
Cc1ccc(C(=O)N/C(=C/c2ccc(-c3ccc(Cl)cc3Cl)o2)C(=O)NCCCO)cc1 [Example X280] | > 1000

Same assay, conditions: unit inferred; read-out: IN inhibition activity 3′-processing

Structure (SMILES) | IC50 [µM]
O=C(CSc1nc2ccccc2n1Cc1ccccc1)N/N=C/c1cc(Br)ccc1O [Compound X244] | 60 ± 11
N#Cc1c(-c2ccc(Cl)cc2)cc(-c2ccccc2)nc1SCC(=O)O [GLD2A2] | 98 ± 10
Nc1cc(N)nc(SCC(=O)O)n1 [GLD2A3] | > 100
O=C(O)CSc1nc(-c2ccccc2)cc(C(F)(F)F)n1 [GLD2A4] | > 100
O=C(O)CSc1nc(-c2cccs2)cc(C(F)(F)F)n1 [GLD2A10] | > 100
O=C(O)CSc1nc(Nc2ccccc2)nc(N2CCOCC2)n1 [GLD2A18] | > 100
O=C(O)CSc1nnc(-c2ccco2)c(-c2ccco2)n1 [GLD2] | 18 ± 4

Same assay, conditions: wild-type IN 200 nM, 7.5 mM MnCl2; read-out: Inhibition of IN Catalytic Activities IC50 (μM) 3′-processing

Structure (SMILES) | IC50 [µM]
O=C(CCN1C(=O)C(=Cc2cccs2)SC1=S)Nc1ccc(O)c(C(=O)O)c1 [Compound X172] | 38 ± 16
COc1cc(C=C2SC(=S)N(CCC(=O)Nc3ccc(C(=O)O)cc3)C2=O)cc(OC)c1OC [Compound X173] | 97 ± 6
O=C(CCN1C(=O)/C(=C/c2cccs2)SC1=S)Nc1ccc2ccccc2c1 [Compound X174] | > 100
O=C(CCN1C(=O)C(=Cc2cccs2)SC1=S)Nc1cccc(O)c1 [Compound X177] | > 100
CC(=Cc1ccccc1)C=C1SC(=S)N(CCC(=O)Nc2ccc(O)c(C(=O)O)c2)C1=O [Compound X185] | 36 ± 23
O=C(CCN1C(=O)/C(=C/c2ccc3c(c2)OCO3)SC1=S)Nc1ccc2c(c1)OCO2 [Compound X187] | 97 ± 6
O=C(CCN1C(=O)C(=Cc2ccc3c(c2)OCO3)SC1=S)Nc1ccc(C(=O)O)c(O)c1 [Compound X188] | 33 ± 23
Cc1ccc(C=C2SC(=S)N(CC(=O)Nc3cc([N+](=O)[O-])ccc3O)C2=O)cc1 [Compound X191] | 84 ± 24
COc1ccc(C=C2SC(=S)N(CCC(=O)Nc3ccc(C(=O)O)c(O)c3)C2=O)cc1OC [Compound X192] | 61 ± 34
O=C(CN1C(=O)C(=Cc2ccccc2Cl)SC1=S)Nc1ccc([N+](=O)[O-])cc1O [Compound X193] | > 100
O=C(CN1C(=O)C(=Cc2ccccc2Cl)SC1=S)Nc1cc([N+](=O)[O-])ccc1O [Compound X194] | 20 ± 7
Cc1ccc(C=C2SC(=S)N(CC(=O)Nc3ccc([N+](=O)[O-])cc3O)C2=O)cc1 [Compound X195] | > 100
O=C(NC(=S)Nc1ccc(O)c(C(=O)O)c1)c1ccccc1 [Compound X199] | > 100
O=C(CCN1C(=O)/C(=C/c2ccccc2Cl)SC1=S)Nc1ccc([N+](=O)[O-])cc1 [Compound X200] | > 100
O=C1/C(=C/c2ccc(O)cc2O)SC(=S)N1c1ccccc1 [Compound X221] | > 100
CCOc1cc(/C=C2\SC(=S)N(NC(=O)c3ccccc3O)C2=O)ccc1O [Compound X223] | 70 ± 27
CC(C)Cn1c(=O)c(C(=O)Nc2ccccc2S(N)(=O)=O)c(O)c2ccccc21 [Compound X228] | 40

What follows are molecules tested against T1, HIV-1 integrase (wild-type IN) (assay: HIV-1 integrase strand transfer assay (32P-labeled 21-mer, gel)). Conditions: unit inferred; read-out: HIV-1 IN Inhibitory Activities Strand transfer.
Assay type: biochemical
Source text: as §1, §2, §3, §4

Structure (SMILES) | IC50 [µM]
O=C(CSc1nc(CSc2ccc(Cl)cc2)cc(=O)[nH]1)Nc1ccc(Cl)cc1Cl [Example X272] | 24
COc1cc(/C=N/NC2=NC(=O)C(CC(=O)Nc3ccc(Cl)c(Cl)c3)S2)ccc1O (centres unmarked) [Example X278] | 38
COc1ccc(N(CC(=O)N/N=C/c2c(O)ccc3ccccc23)S(C)(=O)=O)cc1Cl [Example X279] | 59
Cc1ccc(C(=O)N/C(=C/c2ccc(-c3ccc(Cl)cc3Cl)o2)C(=O)NCCCO)cc1 [Example X280] | 85

Same assay, conditions: unit inferred; read-out: IN inhibition activity Strand transfer

Structure (SMILES) | IC50 [µM]
O=C(CSc1nc2ccccc2n1Cc1ccccc1)N/N=C/c1cc(Br)ccc1O [Compound X244] | 51 ± 3
N#Cc1c(-c2ccc(Cl)cc2)cc(-c2ccccc2)nc1SCC(=O)O [GLD2A2] | 60 ± 12
Nc1cc(N)nc(SCC(=O)O)n1 [GLD2A3] | > 100
O=C(O)CSc1nc(-c2ccccc2)cc(C(F)(F)F)n1 [GLD2A4] | > 100
O=C(O)CSc1nc(-c2cccs2)cc(C(F)(F)F)n1 [GLD2A10] | > 100
O=C(O)CSc1nc(Nc2ccccc2)nc(N2CCOCC2)n1 [GLD2A18] | > 100
O=C(O)CSc1nnc(-c2ccco2)c(-c2ccco2)n1 [GLD2] | 5 ± 3

Same assay, conditions: wild-type IN 200 nM, 7.5 mM MnCl2; read-out: Inhibition of IN Catalytic Activities IC50 (μM) Strand Transfer

Structure (SMILES) | IC50 [µM]
O=C(CCN1C(=O)C(=Cc2cccs2)SC1=S)Nc1ccc(O)c(C(=O)O)c1 [Compound X172] | 38 ± 16
COc1cc(C=C2SC(=S)N(CCC(=O)Nc3ccc(C(=O)O)cc3)C2=O)cc(OC)c1OC [Compound X173] | 85 ± 15
O=C(CCN1C(=O)/C(=C/c2cccs2)SC1=S)Nc1ccc2ccccc2c1 [Compound X174] | > 100
O=C(CCN1C(=O)C(=Cc2cccs2)SC1=S)Nc1cccc(O)c1 [Compound X177] | > 100
CC(=Cc1ccccc1)C=C1SC(=S)N(CCC(=O)Nc2ccc(O)c(C(=O)O)c2)C1=O [Compound X185] | 23 ± 3
O=C(CCN1C(=O)/C(=C/c2ccc3c(c2)OCO3)SC1=S)Nc1ccc2c(c1)OCO2 [Compound X187] | 93 ± 12
O=C(CCN1C(=O)C(=Cc2ccc3c(c2)OCO3)SC1=S)Nc1ccc(C(=O)O)c(O)c1 [Compound X188] | 23 ± 13
Cc1ccc(C=C2SC(=S)N(CC(=O)Nc3cc([N+](=O)[O-])ccc3O)C2=O)cc1 [Compound X191] | 80 ± 18
COc1ccc(C=C2SC(=S)N(CCC(=O)Nc3ccc(C(=O)O)c(O)c3)C2=O)cc1OC [Compound X192] | 17 ± 4
O=C(CN1C(=O)C(=Cc2ccccc2Cl)SC1=S)Nc1ccc([N+](=O)[O-])cc1O [Compound X193] | > 100
O=C(CN1C(=O)C(=Cc2ccccc2Cl)SC1=S)Nc1cc([N+](=O)[O-])ccc1O [Compound X194] | 18 ± 11
Cc1ccc(C=C2SC(=S)N(CC(=O)Nc3ccc([N+](=O)[O-])cc3O)C2=O)cc1 [Compound X195] | > 100
O=C(NC(=S)Nc1ccc(O)c(C(=O)O)c1)c1ccccc1 [Compound X199] | > 100
O=C(CCN1C(=O)/C(=C/c2ccccc2Cl)SC1=S)Nc1ccc([N+](=O)[O-])cc1 [Compound X200] | > 100
O=C1/C(=C/c2ccc(O)cc2O)SC(=S)N1c1ccccc1 [Compound X221] | > 100
CCOc1cc(/C=C2\SC(=S)N(NC(=O)c3ccccc3O)C2=O)ccc1O [Compound X223] | 38 ± 14
CC(C)Cn1c(=O)c(C(=O)Nc2ccccc2S(N)(=O)=O)c(O)c2ccccc21 [Compound X228] | 16
